Results reported in patent US7423149B2, “Substituted n-aryl amidines as selective D1 dopamine receptor antagonists for the treatment of obesity and CNS disorders” (Schering Corporation, priority 2003, dated 2008).

Target: T1, human Dopamine D1 receptor (Homo sapiens, UniProt P21728)
T1 construct: expressed in transfected cells; host or cells: Ltk- cells (mouse fibroblasts), membrane preparation
Assay: radioligand binding competition assay, displacement of [3H]SCH 23390 from D1 receptor (Ltk-cells membranes);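 further: under 5 nM class also requires D2 to D1 selectivity above 500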
Details: class combines Ki (D1) and, for A and B, D2:D1 selectivity (Ki D2 / Ki D1); read-out: D1 binding and D2:D1 Selectivity
Text: Biological Activity: Compounds from this disclosure have been biologically characterized by their ability to displace a known D1-like selective ligand, [3H]SCH 23390 from the human Dopamine D1 receptor, and a known D2-like selective ligand, [3H] Methylspiperone, from the human Dopamine D2 and D4 receptors.
Affinity values (Ki) of compounds at human dopamine receptors were ascertained using radioligand binding competition assays. Cells expressing D1 (Ltk-cells), D2 (long variant, Ltk-cells), D4 (CHO cells) and D5 (GH4C1 cells) receptors were lysed in hypotonic buffer for membrane preparation. Membranes were incubated with various concentrations of test compound and 1 nM [3H] SCH 23390 (D1 and D5) and 0.2 nM [3H] Methylspiperone for (D2 and D4) assays. Non-specific binding was defined as binding in the presence of 10 micromolar of SCH 23390 for D1 and D5 assays and 10 micromolar butaclamol for D2 and D4 assays. Following incubation to equilibrium (1 hour at room temperature), bound radioligand was separated from free by rapid filtration. Bound radioactivity on the dried filters was quantified by liquid scintillation counting.
Selectivity is determined by dividing Ki for D2, D4 or D5 receptors by Ki for D1 receptor.

T1 sequence (P21728 whole entry): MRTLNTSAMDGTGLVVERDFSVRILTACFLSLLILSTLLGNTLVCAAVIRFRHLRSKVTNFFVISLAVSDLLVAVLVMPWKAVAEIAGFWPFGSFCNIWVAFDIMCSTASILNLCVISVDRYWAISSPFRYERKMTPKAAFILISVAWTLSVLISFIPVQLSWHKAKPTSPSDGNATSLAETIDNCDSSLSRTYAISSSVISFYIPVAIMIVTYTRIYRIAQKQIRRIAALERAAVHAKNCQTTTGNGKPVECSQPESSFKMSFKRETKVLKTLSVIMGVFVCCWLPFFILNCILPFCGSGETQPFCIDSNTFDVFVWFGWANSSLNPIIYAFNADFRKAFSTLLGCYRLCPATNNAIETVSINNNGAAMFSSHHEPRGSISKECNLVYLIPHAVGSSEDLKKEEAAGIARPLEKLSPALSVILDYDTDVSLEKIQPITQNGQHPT

Row | SMILES | Ki [nM]
1 | COc1ccc(/C=C/C(=N)Nc2cccc(C(F)(F)F)c2)cc1 [Example 1] | 50 to 10000
2 | N=C(/C=C/c1cc(C(F)(F)F)cc(C(F)(F)F)c1)Nc1ccc(Cl)cc1 [Example 2] | 50 to 10000
3 | N=C(/C=C/c1ccc(Cl)c([N+](=O)[O-])c1)Nc1ccc(Cl)cc1 [Example 3] | 50 to 10000
4 | N=C(/C=C/c1ccccc1I)Nc1ccc(Cl)cc1 [Example 5] | 50 to 10000
5 | N=C(/C=C/c1ccc(Cc2cccnc2)cc1)Nc1ccc(O)cc1 [Example 8] | 50 to 10000
6 | COc1ccc(NC(=N)/C=C/c2ccc(Cc3cccnc3)cc2)cc1Cl [Example 9] | 50 to 10000
7 | N=C(/C=C/c1cccc2ccccc12)Nc1ccc(Cl)cc1 [Example 12] | 50 to 10000
8 | N=C(/C=C/c1ccc(Cl)cc1Cl)Nc1ccc(Cl)cc1 [Example 13] | 10 to 50
9 | N=C(/C=C/c1ccc(Cc2cccnc2)cc1)Nc1ccc2c(c1)CCC2 [Example 15] | 10 to 50
10 | COc1ccc(/C=C/C(=N)Nc2cccc(C)c2)cc1 [Example 17] | 50 to 10000
11 | COc1ccc(/C=C/C(=N)Nc2ccc(F)c(Cl)c2)cc1 [Example 18] | 50 to 10000
12 | CC1CCCCN1c1ccc(/C=C/C(=N)Nc2ccc(Cl)cc2)c(Cl)c1 (stereo not drawn) [Example 20] | < 10
13 | N=C(/C=C/c1ccc(-c2ccc3[nH]ccc3c2)cc1)Nc1ccc(Cl)cc1 [Example 21, N-(4-chloro-phenyl)-3-[4-(1H -indol-5-yl)-phenyl]-acrylamidine] | < 10
14 | N=C(/C=C/c1ccc(Cc2cccnc2)cc1)Nc1ccc2c(c1)OCO2 [Example 22] | 50 to 10000
15 | N=C(/C=C/c1ccc(Cc2cccnc2)cc1)Nc1ccc(Br)cc1 [Example 24] | 10 to 50
16 | COc1ccc2cc(C(=N)Nc3ccc(Cl)cc3)ccc2c1 [Example 26] | 50 to 10000
17 | COc1cccc(OC)c1/C=C/C(=N)Nc1ccc(Cl)cc1 [Example 27] | 50 to 10000
18 | COc1ccc(/C=C/C(=N)Nc2ccc(Cl)cc2)c(Cl)c1OC [Example 29] | 10 to 50
19 | N#Cc1cccc(-c2ccc(/C=C/C(=N)Nc3ccc(Cl)cc3)cc2)c1 [Example 30] | 10 to 50
20 | Cc1ccc(NC(=N)/C=C/c2ccc(Cc3cccnc3)cc2)cc1 [Example 31] | 10 to 50
21 | CN1CCN(c2ccc(/C=C/C(=N)Nc3ccc(Cl)cc3)c(Cl)c2)CC1 [Example 33] | < 10
22 | C[C@H]1CNCCN1c1ccc(/C=C/C(=N)Nc2ccc(Cl)cc2)c(Cl)c1 [Example 34] | < 5
23 | N=C(/C=C/c1ccc(N2CCN(Cc3ccccc3)CC2)cc1)Nc1ccc(Cl)cc1 [Example 36] | 10 to 50
24 | C[C@@H]1CNCCN1c1ccc(/C=C/C(=N)Nc2ccc(Cl)cc2)c(Cl)c1 [Example 39] | < 5
25 | N=C(/C=C/c1ccc(-c2cccc([N+](=O)[O-])c2)cc1)Nc1ccc(Cl)cc1 [Example 41] | 10 to 50
26 | N#Cc1ccc(-c2ccc(/C=C/C(=N)Nc3ccc(Cl)cc3)cc2)cc1 [Example 43] | < 10
27 | CC(CN1CCN(c2ccc(/C=C/C(=N)Nc3ccc(Cl)cc3)c(Cl)c2)CC1)c1ccccc1 (stereo not drawn) [Example 45] | 10 to 50

Row | SMILES | Ki [nM]
28 | COC(=O)C1CC1CN1CCN(c2ccc(/C=C/C(=N)Nc3ccc(Cl)cc3)c(Cl)c2)CC1 (stereo not drawn) [Example 46] | 10 to 50
29 | N=C(/C=C/c1ccc(N2CCN(Cc3cccs3)CC2)cc1Cl)Nc1ccc(Cl)cc1 [Example 47] | 10 to 50
30 | CC(=O)c1ccc(-c2ccc(/C=C/C(=N)Nc3ccc(Cl)cc3)cc2)cc1 [Example 49] | 10 to 50
31 | CN1c2ccccc2Sc2cc(/C=C/C(=N)Nc3ccc(Cl)cc3)ccc21 [Example 50] | 10 to 50
32 | COc1cc(N(C)C)ccc1/C=C/C(=N)Nc1ccc(Cl)cc1 [Example 51] | 10 to 50
33 | CN1CCN(Cc2ccc(-c3ccc(/C=C/C(=N)Nc4ccc(Cl)cc4)cc3)cc2)CC1 [Example 52] | 10 to 50
34 | N=C(/C=C/c1ccc(N2CCN(Cc3cccc(OC(F)(F)F)c3)CC2)cc1Cl)Nc1ccc(Cl)cc1 [Example 53] | 10 to 50
35 | COc1ccc(/C=C/C(=N)Nc2ccc(Cl)cc2)c(F)c1 [Example 54] | 10 to 50
36 | COc1ccc(/C=C/C(=N)Nc2cc(F)cc(F)c2)cc1 [Example 55] | 10 to 50
37 | CCC1CCC(N2CCN(c3ccc(/C=C/C(=N)Nc4ccc(Cl)cc4)c(Cl)c3)CC2)CC1 (stereo not drawn) [Example 56] | 10 to 50
38 | C=Cc1ccc(-c2ccc(/C=C/C(=N)Nc3ccc(Cl)cc3)cc2)cc1 [Example 59] | 10 to 50
39 | N=C(Nc1ccc(Cl)cc1)c1ccc2cc(N3CCN(Cc4ccccc4)CC3)ccc2c1 [Example 61] | 10 to 50
40 | CCOc1ccc(CN2CCN(c3ccc(/C=C/C(=N)Nc4ccc(Cl)cc4)c(Cl)c3)CC2)cc1 [Example 62] | 10 to 50
41 | N=C(Nc1ccc(Cl)cc1)c1ccc2cccc(O)c2n1 [Example 66] | 10 to 50
42 | N=C(/C=C/c1ccc(Cl)s1)Nc1ccc(Cl)cc1 [Example 67] | 10 to 50
43 | N=C(/C=C/c1ccc(-c2ccc(CN3CCNCC3)cc2)cc1)Nc1ccc(Cl)cc1 [Example 68] | 10 to 50
44 | N=C(Nc1ccc(Cl)cc1)c1ccc2cc(N3CCNCC3)ccc2c1 [Example 71] | 10 to 50
45 | N=C(/C=C/c1ccccc1Cl)Nc1ccc(Cl)cc1 [Example 73] | 10 to 50
46 | N=C(/C=C/c1ccc(N2CCN(C3CCCC(C(F)(F)F)C3)CC2)cc1Cl)Nc1ccc(Cl)cc1 (stereo not drawn) [Example 74] | 10 to 50
47 | CC(C)(C)OC(=O)N1CCN(Cc2ccc(-c3ccc(/C=C/C(=N)Nc4ccc(Cl)cc4)cc3)cc2)CC1 [Example 75] | 50 to 10000
48 | N=C(/C=C/c1ccccc1Br)Nc1ccc(Cl)cc1 [Example 76] | 50 to 10000
49 | CC(C)N1CCN(c2ccc(/C=C/C(=N)Nc3ccc(Cl)cc3)c(Cl)c2)CC1 [Example 77] | 50 to 10000
50 | N=C(Nc1ccc(Cl)cc1)c1ccc2nc(N3CCNCC3)ccc2c1 [Example 79] | 50 to 10000
51 | COc1ccc(/C=C/C(=N)Nc2cccc([N+](=O)[O-])c2)cc1 [Example 82] | 50 to 10000
52 | CCC(C)CN1CCN(c2ccc(/C=C/C(=N)Nc3ccc(Cl)cc3)c(Cl)c2)CC1 (stereo not drawn) [Example 83] | 50 to 10000
53 | COc1ccc(/C=C\C(=N)Nc2ccc(Cl)cc2)c(F)c1 [Example 85] | 50 to 10000
54 | N=C(/C=C/c1ccc(-c2ccc(CN3CCN(Cc4ccccc4)CC3)cc2)cc1)Nc1ccc(Cl)cc1 [Example 87] | 50 to 10000

The remaining lines, values ahead:

Row | Ki [nM] | SMILES
55 | 50 to 10000 | N=C(/C=C/c1ccc(OC(F)(F)F)cc1)Nc1ccc(Cl)cc1 [Example 4]
56 | 50 to 10000 | N=C(/C=C/c1ccc(CN2CCCCC2)cc1)Nc1ccc(Cl)cc1 [Example 6]
57 | 10 to 50 | CC(C)(C)c1ccc(/C=C/C(=N)Nc2ccc(Cl)cc2)cc1 [Example 7]
58 | 10 to 50 | CC(C)c1ccc(/C=C/C(=N)Nc2ccc(Cl)cc2)cc1 [Example 10]
59 | 50 to 10000 | N=C(/C=C/c1ccncc1)Nc1ccc(Cl)cc1 [Example 14]
60 | 10 to 50 | N=C(/C=C/c1ccc(-c2ccccc2)cc1)Nc1ccc(Cl)cc1 [Example 16]
61 | 50 to 10000 | N=C(/C=C/c1ccc(Cc2ccccn2)cc1)Nc1ccc(Cl)cc1 [Example 19]
62 | 10 to 50 | COc1ccc(/C=C/C(=N)Nc2ccc(Br)cc2)cc1 [Example 23]
63 | 10 to 50 | N=C(/C=C/c1ccc(-c2ccccn2)cc1)Nc1ccc(Cl)cc1 [Example 25]
64 | 50 to 10000 | Cc1ccc(/C=C/C(=N)Nc2ccc(Cl)cc2)cc1 [Example 28]
65 | < 10 | CC1CCCCN1c1ccc(/C=C/C(=N)Nc2ccc(Cl)cc2)cc1 (stereo not drawn) [Example 32]
66 | 10 to 50 | N=C(/C=C/c1ccc(Cc2ccncc2)cc1)Nc1ccc(Cl)cc1 [Example 35]
67 | 10 to 50 | CN(C)c1ccc(/C=C/C(=N)Nc2ccc(Cl)cc2)cc1 [Example 37]
68 | 10 to 50 | CCN(CC)c1ccc(/C=C/C(=N)Nc2ccc(Cl)cc2)cc1 [Example 38]
69 | < 10 | CCN(CC)c1ccc(/C=C/C(=N)Nc2ccc(Cl)cc2)c(Cl)c1 [Example 40]
70 | < 10 | N=C(/C=C/c1ccc(-c2ccc(C=O)cc2)cc1)Nc1ccc(Cl)cc1 [Example 44]
71 | 10 to 50 | N=C(/C=C/c1ccc(Cc2cccnc2)cc1)Nc1ccc(Cl)cc1 [Example 48]
72 | 10 to 50 | N=C(/C=C/c1ccc(Cc2c[nH]cn2)cc1)Nc1ccc(Cl)cc1 [Example 57]
73 | 10 to 50 | N=C(/C=C/c1ccc(-c2cccc(F)c2)cc1)Nc1ccc(Cl)cc1 [Example 58]
74 | 10 to 50 | CCC1CCCCN1c1ccc(/C=C/C(=N)Nc2ccc(Cl)cc2)cc1 (stereo not drawn) [Example 60]
75 | 10 to 50 | N=C(/C=C/c1ccc(-c2ccsc2)cc1)Nc1ccc(Cl)cc1 [Example 64]
76 | 10 to 50 | COc1ccc(/C=C/C(=N)Nc2ccc(Cl)cc2)cc1Cl [Example 65]
77 | 10 to 50 | COc1ccc(/C=C/C(=N)Nc2ccc(Cl)cc2)cc1OC [Example 69]
78 | 10 to 50 | COc1ccc(/C=C/C(=N)Nc2ccc(Cl)cc2)cc1 [Example 70]
79 | 10 to 50 | N=C(/C=C/c1ccc2c(c1)OCO2)Nc1ccc(Cl)cc1 [Example 72]
80 | 50 to 10000 | N=C(/C=C/c1ccc2ccccc2c1)Nc1ccc(Cl)cc1 [Example 78]
81 | 50 to 10000 | N=C(/C=C/c1ccc(Cl)cc1)Nc1ccc(Cl)cc1 [Example 80]
82 | 50 to 10000 | COc1ccc(/C=C\C(=N)Nc2ccc(Cl)cc2)cc1 [Example 81]
83 | 50 to 10000 | N=C(/C=C/c1ccc(N2CCCCC2)cc1)Nc1ccc(Cl)cc1 [Example 84]
84 | 50 to 10000 | N=C(/C=C/c1ccc(N2CCOCC2)cc1)Nc1ccc(Cl)cc1 [Example 86]
